Measurements reported in patent publication US10626116B2, “Crystalline form of BTK kinase inhibitor and preparation method thereof” (Jiangsu Hengrui Medicine Co., Ltd., priority 2016, dated 2020).

How the values were obtained:
[1] = Special stability study of crystal form I (grinding, heating, tableting); type: physicochemical
Excerpt: Crystal form I of the compound of formula (I) prepared according to the method of Example 2 was ground, heated and tableted.

[2] = Stability under lighting, heating and high humidity; purity detected by HPLC; type: physicochemical; conditions: for Purity by HPLC, 40° C.: heating 40° C.; for Purity by HPLC, 40° C. / Purity by HPLC, 60° C. / Purity by HPLC, RH 75% / Purity by HPLC, RH 90% / Purity by HPLC, Lighting: spread flat in the air; for Purity by HPLC, 60° C.: heating 60° C.; for Purity by HPLC, RH 75%: high humidity RH 75%; for Purity by HPLC, RH 90%: high humidity RH 90%; for Purity by HPLC, Lighting: lighting 4500 Lux
Description: The sample of amorphous form prepared in Example 1 and the sample of crystal form I prepared in Example 2 were spread flat in the air to test their stability under conditions of lighting (4500 Lux), heating (40° C., 60° C.), and high humidity (RH 75%, RH 90%), respectively. Samplings were carried out on Day 5 and Day 10.

[3] = Grinding treatment for 10 minutes in a mortar under nitrogen atmosphere, batch 20150427G
[4] = Heating treatment for 3 hours at 80° C., batch 20150427H
[5] = Tableting treatment, batch 20150427P

Purity by HPLC, 40° C. ([2]; Day 0) [%] | Purity by HPLC, 40° C. ([2]; Day 5) [%] | Purity by HPLC, 40° C. ([2]; Day 10) [%] | Purity by HPLC, 60° C. ([2]; Day 0) [%] | Purity by HPLC, 60° C. ([2]; Day 5) [%] | Purity by HPLC, 60° C. ([2]; Day 10) [%] | Purity by HPLC, RH 75% ([2]; Day 0) [%] | Purity by HPLC, RH 75% ([2]; Day 5) [%] | Purity by HPLC, RH 75% ([2]; Day 10) [%] | Purity by HPLC, RH 90% ([2]; Day 0) [%] | Purity by HPLC, RH 90% ([2]; Day 5) [%] | Purity by HPLC, RH 90% ([2]; Day 10) [%] | Purity by HPLC, Lighting ([2]; Day 0) [%] | Purity by HPLC, Lighting ([2]; Day 5) [%] | Purity by HPLC, Lighting ([2]; Day 10) [%] | Structure (SMILES) | also measured
99.21 | 99.28 | 99.35 | 99.21 | 99.26 | 99.25 | 99.21 | 99.30 | 99.25 | 99.21 | 99.30 | 99.32 | 99.21 | 99.26 | 99.25 | CC#CC(=O)N1CC[C@@H](n2cc(-c3ccc(Oc4c(F)cccc4F)cc3)c3c(N)n[nH]c(=O)c32)C1 [Crystal form I, (R)-4-amino-1-(1-(but-2-ynoyl)pyrrolidin-3-yl)-3-(4-(2,6-difluorophenoxy)phenyl)-1H-pyrrolo[2,3-d]pyridazin-7(6H)-one] | Crystal form after treatment [1, 3]: Crystal; DSC peak after treatment [1, 3]: 239.32 °C; Crystal form after treatment [1, 4]: Crystal; DSC peak after treatment [1, 4]: 238.98 °C; Crystal form after treatment [1, 5]: Crystal; DSC peak after treatment [1, 5]: 241.19 °C; Stability of the crystal form ([1]; ground, heated and tableted (grinding, pressure and heating)): stable; Stability compared with the amorphous sample ([2]; conditions of lighting, high temperature and high humidity): significantly better than that of the amorphous sample
97.70 | 97.64 | 97.57 | 97.70 | 97.68 | 97.52 | 97.70 | 97.52 | 97.59 | 97.70 | 97.50 | 97.48 | 97.70 | 97.67 | 97.62 | CC#CC(=O)N1CC[C@@H](n2cc(-c3ccc(Oc4c(F)cccc4F)cc3)c3c(N)n[nH]c(=O)c32)C1 [Amorphous form, (R)-4-amino-1-(1-(but-2-ynoyl)pyrrolidin-3-yl)-3-(4-(2,6-difluorophenoxy)phenyl)-1H-pyrrolo[2,3-d]pyridazin-7(6H)-one] | –
